Measured values reported in patent publication US8436012B2, “Imidazopyridin-2-one derivatives” (Daiichi Sankyo Company, Limited, priority 2008, dated 2013).

Experiments:
human mTOR = biological target: T1, human mTOR (Homo sapiens, UniProt P42345); experiment: mTOR Kinase Activity Inhibition Test; type: biochemical; details: His-tagged mTOR (1362C), biotinylated peptide substrate, ATP, 3 hours at room temperature, fluorescence resonance energy transfer 665 nm/620 nm; read-out: IC50 value of mTOR enzyme inhibitory activity
T1 construct: the portion corresponding to 1362-2549aa at the C terminus of human mTOR; made in house
T1 sequence (P42345 1362-2549): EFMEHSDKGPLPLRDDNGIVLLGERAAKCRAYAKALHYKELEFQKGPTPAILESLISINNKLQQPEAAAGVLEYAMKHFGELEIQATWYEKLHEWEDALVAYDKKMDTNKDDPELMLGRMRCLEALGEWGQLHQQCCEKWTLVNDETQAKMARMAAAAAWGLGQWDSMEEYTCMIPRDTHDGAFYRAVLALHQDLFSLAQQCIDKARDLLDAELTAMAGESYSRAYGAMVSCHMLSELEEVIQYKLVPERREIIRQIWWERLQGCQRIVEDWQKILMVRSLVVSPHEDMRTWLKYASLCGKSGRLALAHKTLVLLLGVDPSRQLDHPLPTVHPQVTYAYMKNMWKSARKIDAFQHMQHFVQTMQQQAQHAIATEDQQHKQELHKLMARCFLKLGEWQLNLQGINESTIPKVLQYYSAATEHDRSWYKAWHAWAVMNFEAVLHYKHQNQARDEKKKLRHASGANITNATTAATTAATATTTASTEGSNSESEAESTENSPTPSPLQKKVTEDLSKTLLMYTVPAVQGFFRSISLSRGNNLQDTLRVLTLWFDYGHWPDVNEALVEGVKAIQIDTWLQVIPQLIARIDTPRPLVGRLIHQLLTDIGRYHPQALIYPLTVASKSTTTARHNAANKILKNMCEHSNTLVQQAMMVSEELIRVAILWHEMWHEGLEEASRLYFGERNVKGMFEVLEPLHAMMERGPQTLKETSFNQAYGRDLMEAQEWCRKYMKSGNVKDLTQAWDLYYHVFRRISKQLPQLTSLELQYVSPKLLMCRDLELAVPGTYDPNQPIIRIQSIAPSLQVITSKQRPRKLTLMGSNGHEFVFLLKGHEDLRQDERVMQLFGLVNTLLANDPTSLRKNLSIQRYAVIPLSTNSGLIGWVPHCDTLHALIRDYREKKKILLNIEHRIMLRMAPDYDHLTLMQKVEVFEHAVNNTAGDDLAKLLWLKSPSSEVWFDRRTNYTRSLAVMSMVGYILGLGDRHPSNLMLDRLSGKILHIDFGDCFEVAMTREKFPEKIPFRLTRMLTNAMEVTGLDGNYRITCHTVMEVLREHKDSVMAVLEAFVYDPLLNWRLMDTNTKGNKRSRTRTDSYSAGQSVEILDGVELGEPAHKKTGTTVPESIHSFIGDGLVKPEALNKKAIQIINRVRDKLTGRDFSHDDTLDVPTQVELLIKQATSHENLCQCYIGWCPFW
In short: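 Purified His-tagged human mTOR (1362–2549aa, from HEK293) was used with biotinylated peptide (8 μg/mL in enzyme solution) in HEPES pH 7.5 with 20 mM MnCl2. Compounds were diluted in 20 μM ATP solution, and the reaction ran 3 h at RT. Phospho-S6K(Thr389) HTRF was read as the 665/620 nm ratio, and IC50 came from % inhibition versus controls.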

WM-266-4 cells = experiment: Cell Proliferation Inhibitory Test; type: cell-based; details: Homo sapiens, 72 h, cultured three days with test compound, MTT, read-out: 50% cell proliferation inhibitory activity (GI50 value)
In short: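 Cells cultured overnight, then exposed to serially diluted compound for three days; cell amount read by MTT. GI50 solved from 100×[(T−T0)/(C−T0)]=50, with T0 the value at time of compound addition and C the untreated three-day control.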

| Structure (SMILES) | IC50 (human mTOR) [nM] | GI50 (WM-266-4 cells) [nM] |
| --- | --- | --- |
| CC(=O)N1CCN(CCn2c(=O)[nH]c3ncc(-c4cnc5[nH]ccc5c4)cc32)CC1 [Example 59, 1-[2-(4-Acetylpiperazin-1-yl)ethyl]-6-(1H-pyrrolo[2,3-b]pyridin-5-yl)-1,3-dihydro-2H-imidazo[4,5-b]pyridin-2-one] | < 50 | 3000 to 25000 |
| CS(=O)(=O)N1CCN(CCn2c(=O)[nH]c3ncc(-c4cnc5[nH]ccc5c4)cc32)CC1 [Example 60, 1-{2-[4-(Methylsulfonyl)piperazin-1-yl]ethyl}-6-(1H-pyrrolo[2,3-b]pyridin-5-yl)-1,3-dihydro-2H-imidazo[4,5-b]pyridin-2-one] | < 50 | < 3000 |
| COC1(Cn2c(=O)[nH]c3ncc(-c4cnc5[nH]ccc5c4)cc32)CCOCC1 [Example 68, 1-[(4-Methoxytetrahydro-2H-pyran-4-yl)methyl]-6-(1H-pyrrolo[2,3-b]pyridin-5-yl)-1,3-dihydro-2H-imidazo[4,5-b]pyridin-2-one] | < 50 | < 3000 |
| O=c1[nH]c2ncc(-c3cnc4[nH]ccc4c3)cc2n1CC1(F)CCOCC1 [Example 69, 1-[(4-Fluorotetrahydro-2H-pyran-4-yl)methyl]-6-(1H-pyrrolo[2,3-b]pyridin-5-yl)-1,3-dihydro-2H-imidazo[4,5-b]pyridin-2-one] | < 50 | < 3000 |
| C[C@@H]1C[C@H](Cn2c(=O)[nH]c3ncc(-c4cnc5[nH]ccc5c4)cc32)C[C@H](C)O1 [Example 71, 1-{[(2R-4r-6S)-2,6-Dimethyltetrahydro-2H-pyran-4-yl]methyl}-6-(1H-pyrrolo-[2,3-b]pyridin-5-yl)-1,3-dihydro-2H-imidazo[4,5-b]pyridin-2-one] | < 50 | < 3000 |
| Nc1n[nH]c2ccc(-c3cnc4[nH]c(=O)n(CC5CCOCC5)c4c3)cc12 [Example 72, 6-(3-Amino-1H-indazol-5-yl)-1-(tetrahydro-2H-pyran-4-ylmethyl)-1,3-dihydro-2H-imidazo[4,5-b]pyridin-2-one] | < 50 | 3000 to 25000 |
| O=c1[nH]c2ncc(-c3cnc4ccnn4c3)cc2n1CC1CCOCC1 [Example 73, 6-Pyrazolo[1,5-a]pyrimidin-6-yl-1-(tetrahydro-2H-pyran-4-ylmethyl)-1,3-dihydro-2H-imidazo[4,5-b]pyridin-2-one] | 100 to 5000 | 3000 to 25000 |
| O=c1[nH]c2ncc(-c3cnc4[nH]ncc4c3)cc2n1CC1CCOCC1 [Example 74, 6-(1H-Pyrazolo[3,4-b]pyridin-5-yl)-1-(tetrahydro-2H-pyran-4-ylmethyl)-1,3-dihydro-2H-imidazo[4,5-b]pyridin-2-one] | 100 to 5000 | 3000 to 25000 |
| O=c1[nH]c2ncc(-c3cnc4[nH]ccc4n3)cc2n1CC1CCOCC1 [Example 75, 6-(5H-Pyrrolo[2,3-b]pyrazin-2-yl)-1-(tetrahydro-2H-pyran-4-ylmethyl)-1,3-dihydro-2H-imidazo[4,5-b]pyridin-2-one] | 50 to 100 | < 3000 |
| O=c1[nH]c2ncc(-c3cc4cc[nH]c4nn3)cc2n1CC1CCOCC1 [Example 76, 6-(7H-Pyrrolo[2,3-c]pyridazin-3-yl)-1-(tetrahydro-2H-pyran-4-ylmethyl)-1,3-dihydro-2H-imidazo[4,5-b]pyridin-2-one] | < 50 | 3000 to 25000 |
| Nc1c[nH]c2ncc(-c3cnc4[nH]c(=O)n(CC5CCOCC5)c4c3)cc12 [Example 77, 6-(3-Amino-1H-pyrrolo[2,3-b]pyridin-5-yl)-1-(tetrahydro-2H-pyran-4-ylmethyl)-1,3-dihydro-2H-imidazo[4,5-b]pyridin-2-one] | 50 to 100 | 3000 to 25000 |
| O=c1[nH]c2ncc(-c3cc4cc[nH]c4nc3Cl)cc2n1CC1CCOCC1 [Example 78, 6-(6-Chloro-1H-pyrrolo[2,3-b]pyridin-5-yl)-1-(tetrahydro-2H-pyran-4-ylmethyl)-1,3-dihydro-2H-imidazo[4,5-b]pyridin-2-one] | < 50 | < 3000 |
| O=c1[nH]c2ncc(-c3cc4cc[nH]c4nc3F)cc2n1CC1CCOCC1 [Example 79, 6-(6-Fluoro-1H-pyrrolo[2,3-b]pyridin-5-yl)-1-(tetrahydro-2H-pyran-4-ylmethyl)-1,3-dihydro-2H-imidazo[4,5-b]pyridin-2-one] | < 50 | < 3000 |
| O=Cc1c[nH]c2ccc(-c3cnc4[nH]c(=O)n(CC5CCOCC5)c4c3)cc12 [Example 81, 5-[2-Oxo-1-(tetrahydro-2H-pyran-4-ylmethyl)-2,3-dihydro-1H-imidazo[4,5-b]pyridin-6-yl]-1H-indole-3-carbaldehyde] | < 50 | < 3000 |
| O=c1[nH]c2ncc(-c3ccc4[nH]ccc4n3)cc2n1CC1CCOCC1 [Example 82, 6-(1H-Pyrrolo[3,2-b]pyridin-5-yl)-1-(tetrahydro-2H-pyran-4-ylmethyl)-1,3-dihydro-2H-imidazo[4,5-b]pyridin-2-one] | < 50 | < 3000 |
| O=c1[nH]c2ncc(-c3cc4cc[nH]c4cn3)cc2n1CC1CCOCC1 [Example 83, 6-(1H-Pyrrolo[2,3-c]pyridin-5-yl)-1-(tetrahydro-2H-pyran-4-ylmethyl)-1,3-dihydro-2H-imidazo[4,5-b]pyridin-2-one] | < 50 | < 3000 |
| O=c1[nH]c2ncc(-c3cnc4[nH]cc(C(F)(F)F)c4c3)cc2n1CC1CCOCC1 [Example 84, 1-(Tetrahydro-2H-pyran-4-ylmethyl)-6-[3-(trifluoromethyl)-1H-pyrrolo[2,3-b]pyridin-5-yl]-1,3-dihydro-2H-imidazo[4,5-b]pyridin-2-one] | < 50 | 3000 to 25000 |
| CC(=O)c1c[nH]c2ncc(-c3cnc4[nH]c(=O)n(CC5CCOCC5)c4c3)cc12 [Example 85, 6-(3-Acetyl-1H-pyrrolo[2,3-b]pyridin-5-yl)-1-(tetrahydro-2H-pyran-4-ylmethyl)-1,3-dihydro-2H-imidazo[4,5-b]pyridin-2-one] | 100 to 5000 | 3000 to 25000 |
| CCOCc1cc2cc(-c3cnc4[nH]c(=O)n(CC5CCOCC5)c4c3)cnc2[nH]1 [Example 86, 6-[2-(Ethoxymethyl)-1H-pyrrolo[2,3-b]pyridin-5-yl]-1-(tetrahydro-2H-pyran-4-ylmethyl)-1,3-dihydro-2H-imidazo[4,5-b]pyridin-2-one] | 100 to 5000 | 3000 to 25000 |
| Cc1[nH]c2ncc(-c3cnc4[nH]c(=O)n(CC5CCOCC5)c4c3)cc2c1C [Example 87, 6-(2,3-Dimethyl-1H-pyrrolo[2,3-b]pyridin-5-yl)-1-(tetrahydro-2H-pyran-4-ylmethyl)-1,3-dihydro-2H-imidazo[4,5-b]pyridin-2-one] | 100 to 5000 | 3000 to 25000 |
| O=c1[nH]c2ncc(-c3cnc4cc[nH]c4c3)cc2n1CC1CCOCC1 [Example 88, 6-(1H-Pyrrolo[3,2-b]pyridin-6-yl)-1-(tetrahydro-2H-pyran-4-ylmethyl)-1,3-dihydro-2H-imidazo[4,5-b]pyridin-2-one] | 100 to 5000 | < 3000 |
| CN(C)Cc1c[nH]c2ncc(-c3cnc4[nH]c(=O)n(CC5CCOCC5)c4c3)cc12 [Example 89, 6-{3-[(Dimethylamino)methyl]-1H-pyrrolo[2,3-b]pyridin-5-yl}-1-(tetrahydro-2H-pyran-4-ylmethyl)-1,3-dihydro-2H-imidazo[4,5-b]pyridin-2-one] | 100 to 5000 | 3000 to 25000 |
| CC(C)c1c[nH]c2ncc(-c3cnc4[nH]c(=O)n(CC5CCOCC5)c4c3)cc12 [Example 90, 6-{3-Isopropyl-1H-pyrrolo[2,3-b]pyridin-5-yl}-1-(tetrahydro-2H-pyran-4-ylmethyl)-1,3-dihydro-2H-imidazo[4,5-b]pyridin-2-one] | < 50 | < 3000 |
| N#Cc1c(-c2cnc3[nH]c(=O)n(CC4CCOCC4)c3c2)cnc2[nH]ccc12 [Example 91, 5-[2-Oxo-1-(tetrahydro-2H-pyran-4-ylmethyl)-2,3-dihydro-1H-imidazo[4,5-b]pyridin-6-yl]-1H-pyrrolo[2,3-b]pyridine-4-carbonitrile] | 100 to 5000 | < 3000 |
| CCOC(=O)c1c[nH]c2ncc(-c3cnc4[nH]c(=O)n(CC5CCOCC5)c4c3)cc12 [Example 92, Ethyl 5-[2-oxo-1-(tetrahydro-2H-pyran-4-ylmethyl)-2,3-dihydro-1H-imidazo[4,5-b]pyridin-6-yl]-1H-pyrrolo[2,3-b]pyridine-3-carboxylate] | < 50 | < 3000 |
| O=C(O)c1c[nH]c2ncc(-c3cnc4[nH]c(=O)n(CC5CCOCC5)c4c3)cc12 [Example 93, 5-[2-oxo-1-(tetrahydro-2H-pyran-4-ylmethyl)-2,3-dihydro-1H-imidazo[4,5-b]pyridin-6-yl]-1H-pyrrolo[2,3-b]pyridine-3-carboxylic acid] | < 50 | 3000 to 25000 |
| CNC(=O)c1c[nH]c2ncc(-c3cnc4[nH]c(=O)n(CC5CCOCC5)c4c3)cc12 [Example 94, N-Methyl-5-[2-oxo-1-(tetrahydro-2H-pyran-4-ylmethyl)-2,3-dihydro-1H-imidazo[4,5-b]pyridin-6-yl]-1H-pyrrolo[2,3-b]pyridine-3-carboxamide] | 100 to 5000 | 3000 to 25000 |
| N#Cc1c[nH]c2ncc(-c3cnc4[nH]c(=O)n(CC5CCOCC5)c4c3)cc12 [Example 95, 5-[2-Oxo-1-(tetrahydro-2H-pyran-4-ylmethyl)-2,3-dihydro-1H-imidazo[4,5-b]pyridin-6-yl]-1H-pyrrolo[2,3-b]pyridine-3-carbonitrile] | < 50 | 3000 to 25000 |
